Calls of active or inactive are those of the source. Bounds are passed on as bounds.

For test [1], the target named is T1, Insulin-degrading enzyme (Homo sapiens, UniProt P14735).
T1 sequence (P14735 whole entry): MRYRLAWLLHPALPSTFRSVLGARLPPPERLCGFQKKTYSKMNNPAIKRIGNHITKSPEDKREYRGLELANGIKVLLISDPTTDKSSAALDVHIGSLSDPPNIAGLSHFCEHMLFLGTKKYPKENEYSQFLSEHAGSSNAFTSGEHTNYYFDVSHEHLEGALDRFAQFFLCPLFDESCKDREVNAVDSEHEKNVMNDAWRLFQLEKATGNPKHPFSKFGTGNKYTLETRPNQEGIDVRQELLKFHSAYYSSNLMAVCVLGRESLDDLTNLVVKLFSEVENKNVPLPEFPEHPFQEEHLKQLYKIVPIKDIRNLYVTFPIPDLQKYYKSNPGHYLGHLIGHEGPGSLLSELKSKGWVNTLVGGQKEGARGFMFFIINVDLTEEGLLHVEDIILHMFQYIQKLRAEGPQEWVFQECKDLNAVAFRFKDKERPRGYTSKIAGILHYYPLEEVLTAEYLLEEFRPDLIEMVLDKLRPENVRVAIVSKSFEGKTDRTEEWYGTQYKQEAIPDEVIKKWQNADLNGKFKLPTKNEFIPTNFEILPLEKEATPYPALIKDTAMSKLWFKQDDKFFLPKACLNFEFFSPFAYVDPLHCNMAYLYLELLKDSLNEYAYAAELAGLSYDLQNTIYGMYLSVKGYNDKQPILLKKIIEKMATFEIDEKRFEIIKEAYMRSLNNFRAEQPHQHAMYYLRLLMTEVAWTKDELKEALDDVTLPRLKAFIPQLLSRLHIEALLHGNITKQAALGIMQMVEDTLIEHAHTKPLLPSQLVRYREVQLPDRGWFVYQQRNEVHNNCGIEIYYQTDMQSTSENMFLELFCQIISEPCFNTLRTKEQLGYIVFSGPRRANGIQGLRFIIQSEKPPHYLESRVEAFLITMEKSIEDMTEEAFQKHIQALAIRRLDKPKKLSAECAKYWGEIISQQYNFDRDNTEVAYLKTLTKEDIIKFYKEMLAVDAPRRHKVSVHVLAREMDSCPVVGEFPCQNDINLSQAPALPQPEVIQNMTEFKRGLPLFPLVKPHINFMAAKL
In words: recombinant IDE activation, cell-free – biochemical, fluorescence polarization, counter-screen for IDE activator project, dose response (AID 588681). In general terms: Polarisation of emitted light reports the rotation of a fluorescent probe.

Test [2] relates to HEK293. In words: optical interference in Abeta FP readout, dose response, artefact control for IDE activator project, biochemical, fluorescence polarization (AID 588442). Type of test: functional, cell-based. To be noted: Homo sapiens.
In test [3] the target is T1, Insulin-degrading enzyme. Briefly: cellular IDE activation of Abeta substrate cleavage – fluorescence polarization, HEK cells, dose response (AID 588439). Type of test: functional, cell-based.
Test [4] deals with HEK293. In words: membrane integrity loss in HEK cells – cell-based, fluorescence, cytotoxicity control for IDE activator project, dose response (AID 588440).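 Further: cytotoxicity by LDH release measuring loss of membrane integrity.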 Type of test: functional. As to conditions: Homo sapiens.
For a further test, the target named is T2, Estrogen receptor (Homo sapiens, UniProt P03372).
T2 sequence (P03372 whole entry): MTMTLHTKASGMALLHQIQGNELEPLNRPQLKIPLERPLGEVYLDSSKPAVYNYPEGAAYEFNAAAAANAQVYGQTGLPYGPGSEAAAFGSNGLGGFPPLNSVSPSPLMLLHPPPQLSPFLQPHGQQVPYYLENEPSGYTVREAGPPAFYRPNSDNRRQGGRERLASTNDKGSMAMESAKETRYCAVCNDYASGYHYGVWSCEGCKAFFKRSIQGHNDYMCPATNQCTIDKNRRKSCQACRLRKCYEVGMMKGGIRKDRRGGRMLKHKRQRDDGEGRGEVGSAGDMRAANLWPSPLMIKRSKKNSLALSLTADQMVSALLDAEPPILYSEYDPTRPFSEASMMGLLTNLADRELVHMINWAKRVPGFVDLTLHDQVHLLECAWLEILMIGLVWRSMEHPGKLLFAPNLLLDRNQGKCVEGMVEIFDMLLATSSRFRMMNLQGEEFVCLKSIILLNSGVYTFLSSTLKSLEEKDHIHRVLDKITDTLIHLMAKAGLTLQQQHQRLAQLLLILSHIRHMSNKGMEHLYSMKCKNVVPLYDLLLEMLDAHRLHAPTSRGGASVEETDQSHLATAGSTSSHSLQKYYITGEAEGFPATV

The next test deals with Vero. Briefly: viability of Vero cells under compound – cytotoxicity control for flavivirus capping enzyme inhibitors (AID 588742). It is filed as functional. To be noted: Chlorocebus sabaeus.
A further test concerns the target Estrogen receptor beta (Homo sapiens, UniProt Q92731).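 Further: recombinant ER-beta bound to coactivator SRC1 peptide in presence of estradiol agonist; inhibitors block coactivator peptide binding and lower the FRET signal.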
The target in test [5] is T3, Sentrin-specific protease 6 (Homo sapiens, UniProt Q9GZR1).
T3 sequence (Q9GZR1 whole entry): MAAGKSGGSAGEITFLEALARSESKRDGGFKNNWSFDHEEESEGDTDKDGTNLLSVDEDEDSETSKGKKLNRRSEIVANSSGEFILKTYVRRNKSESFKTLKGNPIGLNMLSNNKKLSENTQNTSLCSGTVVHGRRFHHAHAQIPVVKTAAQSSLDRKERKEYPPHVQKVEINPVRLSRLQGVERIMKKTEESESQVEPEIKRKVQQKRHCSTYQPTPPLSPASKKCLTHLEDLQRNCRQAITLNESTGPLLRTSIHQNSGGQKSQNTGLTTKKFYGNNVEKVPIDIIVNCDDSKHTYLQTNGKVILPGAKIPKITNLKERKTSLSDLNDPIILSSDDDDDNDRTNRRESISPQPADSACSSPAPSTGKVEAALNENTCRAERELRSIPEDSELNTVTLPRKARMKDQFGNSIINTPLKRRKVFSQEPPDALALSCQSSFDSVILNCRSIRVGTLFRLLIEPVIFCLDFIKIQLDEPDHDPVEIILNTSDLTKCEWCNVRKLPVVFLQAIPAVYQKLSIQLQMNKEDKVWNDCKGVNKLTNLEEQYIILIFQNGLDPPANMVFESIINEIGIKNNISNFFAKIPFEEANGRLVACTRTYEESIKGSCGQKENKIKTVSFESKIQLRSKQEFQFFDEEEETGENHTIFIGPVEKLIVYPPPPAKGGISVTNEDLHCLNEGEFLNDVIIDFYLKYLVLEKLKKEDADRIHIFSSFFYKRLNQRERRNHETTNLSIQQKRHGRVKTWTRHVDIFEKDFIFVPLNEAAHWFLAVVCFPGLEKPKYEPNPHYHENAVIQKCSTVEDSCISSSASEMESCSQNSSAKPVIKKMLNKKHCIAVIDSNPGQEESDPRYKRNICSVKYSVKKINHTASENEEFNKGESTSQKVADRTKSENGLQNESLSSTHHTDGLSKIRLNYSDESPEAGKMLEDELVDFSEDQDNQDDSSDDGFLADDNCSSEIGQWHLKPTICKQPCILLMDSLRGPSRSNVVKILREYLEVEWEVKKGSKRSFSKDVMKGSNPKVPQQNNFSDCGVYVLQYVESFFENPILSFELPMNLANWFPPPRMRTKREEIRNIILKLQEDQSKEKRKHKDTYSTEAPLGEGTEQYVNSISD
In words: SAR Analysis of small molecule inhibitors of Sentrin-specific protease 6 (SENP6) using a Luminescent assay. [Related pubchem assays (depositor defined):AID2582, AID2599]. It is filed as functional.

The target of test [6] is T4, Sentrin-specific protease 8 (Homo sapiens, UniProt Q96LD8).
T4 sequence (Q96LD8 whole entry): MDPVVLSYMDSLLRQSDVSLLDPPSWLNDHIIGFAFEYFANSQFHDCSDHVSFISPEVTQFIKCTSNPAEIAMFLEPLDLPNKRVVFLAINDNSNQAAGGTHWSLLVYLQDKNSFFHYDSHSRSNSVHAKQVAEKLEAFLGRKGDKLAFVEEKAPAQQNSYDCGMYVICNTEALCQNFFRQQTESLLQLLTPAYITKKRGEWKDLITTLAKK
Briefly: inhibition of human SENP8 cleavage activity – biochemical, luminescence, SAR follow-up (AID 504501). Type of test: functional.

The target of the next test is T5, Caspase-3 (Homo sapiens, UniProt P42574).
T5 sequence (P42574 whole entry): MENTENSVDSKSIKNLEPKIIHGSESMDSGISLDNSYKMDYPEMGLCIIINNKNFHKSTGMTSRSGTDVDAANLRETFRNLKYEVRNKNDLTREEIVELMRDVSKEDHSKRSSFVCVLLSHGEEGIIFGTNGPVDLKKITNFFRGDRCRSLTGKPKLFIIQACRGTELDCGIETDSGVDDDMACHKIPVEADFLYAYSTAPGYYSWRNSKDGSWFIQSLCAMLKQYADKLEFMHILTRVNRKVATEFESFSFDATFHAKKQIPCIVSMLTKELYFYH
Briefly: SAR Analysis of small molecule inhibitors of Sentrin-specific proteases (SENPs) using a Caspase-3 Selectivity assay. [Related pubchem assays (depositor defined):AID2540, AID2599, AID434973, AID489001]. Type of test: functional.

The target of test [7] is T6, Sentrin-specific protease 7 (Homo sapiens, UniProt Q9BQF6).
T6 sequence (Q9BQF6 whole entry): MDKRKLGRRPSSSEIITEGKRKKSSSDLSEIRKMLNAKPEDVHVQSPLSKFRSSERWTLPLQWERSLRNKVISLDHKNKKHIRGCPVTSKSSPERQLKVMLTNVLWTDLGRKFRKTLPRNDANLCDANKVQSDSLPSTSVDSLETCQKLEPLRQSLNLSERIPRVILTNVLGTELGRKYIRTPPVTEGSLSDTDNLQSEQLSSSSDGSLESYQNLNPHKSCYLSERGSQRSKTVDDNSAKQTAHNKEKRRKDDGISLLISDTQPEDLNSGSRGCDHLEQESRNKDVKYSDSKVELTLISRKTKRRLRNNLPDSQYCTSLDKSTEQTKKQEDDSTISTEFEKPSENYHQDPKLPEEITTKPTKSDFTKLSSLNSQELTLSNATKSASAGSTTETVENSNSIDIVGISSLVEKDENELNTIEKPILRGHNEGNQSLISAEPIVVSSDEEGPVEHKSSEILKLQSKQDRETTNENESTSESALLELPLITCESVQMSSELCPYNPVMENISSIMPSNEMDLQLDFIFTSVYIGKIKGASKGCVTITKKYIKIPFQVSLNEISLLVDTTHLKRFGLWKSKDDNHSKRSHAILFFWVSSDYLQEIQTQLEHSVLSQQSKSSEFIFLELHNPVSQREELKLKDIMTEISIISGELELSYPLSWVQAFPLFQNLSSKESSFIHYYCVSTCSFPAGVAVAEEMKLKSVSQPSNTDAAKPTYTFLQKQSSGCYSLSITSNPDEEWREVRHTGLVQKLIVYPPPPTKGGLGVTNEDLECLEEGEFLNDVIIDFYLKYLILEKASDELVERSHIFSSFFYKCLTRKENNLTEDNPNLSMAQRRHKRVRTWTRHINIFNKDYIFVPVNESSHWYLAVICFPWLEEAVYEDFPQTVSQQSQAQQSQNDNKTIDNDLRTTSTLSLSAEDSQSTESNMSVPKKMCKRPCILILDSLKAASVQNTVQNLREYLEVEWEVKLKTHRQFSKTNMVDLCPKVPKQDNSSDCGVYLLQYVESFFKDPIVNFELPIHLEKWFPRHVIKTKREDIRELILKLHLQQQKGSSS
Briefly: inhibition of human SENP7 cleavage activity – biochemical, luminescence, SAR follow-up (AID 504497). It is filed as functional.

Test [8] deals with Hepatocyte nuclear factor 4-alpha (Homo sapiens, UniProt P41235). It is filed as functional, cell-based.
Sequence of Hepatocyte nuclear factor 4-alpha (P41235 whole entry): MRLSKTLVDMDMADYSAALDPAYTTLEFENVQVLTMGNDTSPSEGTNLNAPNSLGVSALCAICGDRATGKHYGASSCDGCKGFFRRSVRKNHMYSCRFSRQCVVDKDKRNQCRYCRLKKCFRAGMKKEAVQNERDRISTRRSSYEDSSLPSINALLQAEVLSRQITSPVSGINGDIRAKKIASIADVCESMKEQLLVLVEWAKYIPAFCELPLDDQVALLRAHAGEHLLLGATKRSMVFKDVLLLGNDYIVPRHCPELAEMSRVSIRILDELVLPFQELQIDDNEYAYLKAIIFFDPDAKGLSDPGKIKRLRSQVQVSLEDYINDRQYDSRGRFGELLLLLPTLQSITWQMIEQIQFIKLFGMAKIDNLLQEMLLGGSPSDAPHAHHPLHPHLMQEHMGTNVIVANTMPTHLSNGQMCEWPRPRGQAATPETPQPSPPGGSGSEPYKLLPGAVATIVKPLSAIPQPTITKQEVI

Sequence of Estrogen receptor beta (Q92731 whole entry): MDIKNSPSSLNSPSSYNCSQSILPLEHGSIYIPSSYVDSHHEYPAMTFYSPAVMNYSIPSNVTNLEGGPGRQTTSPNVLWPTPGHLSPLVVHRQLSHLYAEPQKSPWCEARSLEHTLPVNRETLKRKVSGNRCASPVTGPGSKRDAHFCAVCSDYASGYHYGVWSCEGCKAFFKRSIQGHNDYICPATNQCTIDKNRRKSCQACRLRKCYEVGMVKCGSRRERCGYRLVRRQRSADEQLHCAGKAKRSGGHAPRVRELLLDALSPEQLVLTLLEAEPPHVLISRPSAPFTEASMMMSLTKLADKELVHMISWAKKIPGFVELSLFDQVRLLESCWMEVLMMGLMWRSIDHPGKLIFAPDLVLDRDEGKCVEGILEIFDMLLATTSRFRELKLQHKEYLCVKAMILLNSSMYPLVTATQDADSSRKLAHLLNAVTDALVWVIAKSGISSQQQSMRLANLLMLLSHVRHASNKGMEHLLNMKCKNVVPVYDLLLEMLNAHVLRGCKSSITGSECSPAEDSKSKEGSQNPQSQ

As usually defined, the EC50 is the concentration needed to bring the measured effect to its halfway point. As a reminder, the IC50 is the concentration at which inhibition is half-maximal. As to `O=C(c1cnn(C(=O)c2ccco2)c1)c1cc(F)ccc1O`, the EC50 on Insulin-degrading enzyme [1], in the test on HEK293 [2] and at Insulin-degrading enzyme [3] was > 54.7 µM (inactive) throughout. The IC50 in the test with HEK293 [4] is > 89.1 µM (inactive).
`CC(OC(=O)c1ccc(Cl)nc1)C(=O)NC1(C#N)CCCCC1` (centres undefined): the EC50 at Insulin-degrading enzyme [1], with HEK293 [2] and on Insulin-degrading enzyme [3] was > 54.7 µM (inactive) in each case. In addition, in the test on HEK293 [4], the IC50 is > 89.3 µM (inactive).
What is called CC50 is the concentration that lowers cell viability or growth by half. Take `O=C(Nc1ccc(N2CCCC2)cc1)C(Cl)c1ccccc1` (centres undefined): the IC50 on Estrogen receptor and against Estrogen receptor beta was > 50 µM (not active) in each case. For the same molecule, in the test with Vero, the CC50 was > 40 µM (active).
For `Cc1ccsc1C(=O)Nc1nc2ccc(Cl)cc2s1`, the IC50 in test [5] is 0.66 µM (active); in test [6], 0.62 µM (active); on Caspase-3, 0.48 µM (active); in test [7], 0.75 µM (active).
On to `COc1ccc(C2C(C#N)=C(N)Oc3c2c(C)nn3-c2ccccc2)cc1` (centres undefined), for which the IC50 in [5] is 32.4 µM (active); in [6] it was > 99 µM (inactive); on Caspase-3, > 99 µM (inactive); in test [7], 63 µM (active).
On to `C(=C\c1nc(-c2ccc(N3CCOCC3)cc2)no1)/c1ccccc1`, for which the IC50 (in test [5]; in test [6]; at Caspase-3; in test [7]) was > 99 µM (inactive) throughout.
As to `O=C1CC(c2ccc(Cl)cc2)Oc2ccc(Cl)cc21` (centres undefined), the IC50 in [8] was 6.14 µM (active).

For the origin of these results see ChEMBL document CHEMBL1201862, “PubChem BioAssay data set” (2004).
